Results as given in patent publication US20140096445A1, “METHOD OF CULTIVATION IN WATER DEFICIT CONDITIONS” (SYNGENTA PARTICIPATIONS AG, priority 2011, published 2014).

Tests used:
Type in all cases: in vivo
corn [1] = experiment: Sprinkler irrigation management field test, full vs deficit irrigation, Examples 9-10; conditions: 261 gai/ha, 60% irrigated deficit
Description: A completely random test design (split plot) was conducted using Sprinkler Irrigation. This was an irrigation management test to study treatment effects on yield under full irrigation and deficit irrigation conditions. The field study was set up with four replications and tested on silt loam soil. Overhead sprinkler irrigation and overhead sprinkler chemigation was used in this study. Each plot was 4 rows wide (3 meters) by 9.1 meters long. Soil water status was monitored throughout the growing season using soil moisture sensors. Corn seed was planted with a precision planter at a depth of 2 inches and rows spaced at 30 inches. The planting population was 30,000 seeds per acre. Testing parameters, irrigation levels, and harvesting were conducted according to the University of Nebraska experimental procedure (see, e.g.,: Irmak, S, D. Z. Haman, and R. Bastug. Determination of Crop Water Stress Index for irrigation Timing and Yield Estimation of Corn. 2000. Agronomy Journal. 92:1221-1227). Moisture levels, irrigation levels, and plant health were measured throughout the growing season. Climatic variables were measured (air temperature, rainfall, solar and net radiation, relative humidity, rainfall, wind speed and direction) throughout the season. Irrigation for the fully irrigated treatments was scheduled according crop need based on soil water measurements. The deficit irrigation treatments were scheduled at approximately 60% of the fully irrigated plots (1.2 inches/acre vs. 2 inches of water/acre, respectively). Volumetric soil water content was measured on a weekly basis throughout the crop season to determine total water use. Maintenance crop protection products were applied as needed to manage weeds & pests throughout the season for all treatments including the control. Azoxystrobin (Quadris) was applied via overhead sprinkler irrigation at 261 grams active ingredient/hectare or by foliar application (tractor mounted sprayer) at 261 grams active ingredient/hectare at approximately V6 & R1 stages of the corn. Crop yield from each replication was recorded after harvest and adjusted to 15% moisture content.

corn [2] = experiment: SDI chemigation field study under dryland/rainfed conditions, Examples 15-16; conditions: 261 gai/ha, 0% irrigated rainfed/dryland
soybean = experiment: Lateral-move sprinkler irrigation field study on soybean, Examples 29-30; conditions: for % IWUE Increase over Untreated / % Seed Mass Increase over Untreated / % Yield Increase over Untreated / IWUE (water productivity) / Seed Mass / Yield: foliar 150 gai/ha, average of 60% & 100% irrigated

Structure (SMILES): CO/C=C(/C(=O)OC)c1ccccc1Oc1cc(Oc2ccccc2C#N)ncn1 [Azoxystrobin, azoxystrobin]
- Yield (corn [1]; foliar-applied (V6 & R1)): 196 Bu./acre
- Azoxystrobin % Yield Increase over 60% Untr. (corn [1]; foliar-applied): +3% Incr.
- Azoxystrobin % Yield Increase over 100% Untr. (corn [1]; foliar-applied): +4% Incr.
- Yield (corn [1]; sprinkler chemigated (V6 & R1)): 197 Bu./acre
- Azoxystrobin % Yield Increase over 60% Untr. (corn [1]; sprinkler chemigated): +4% Incr.
- Azoxystrobin % Yield Increase over 100% Untr. (corn [1]; sprinkler chemigated): +5% Incr.
- Yield (corn [2]; SDI chemigated (V6 & R1)): 166.2 Bu./acre
- Azoxystrobin % CWUE Increase over Untr./0% irr. (corn [2]; SDI chemigated): +142% incr over
- Azoxystrobin % Yield Increase over Untr./0% irr. (corn [2]; SDI chemigated): +9.6% incr over
- CWUE (crop water use efficiency) (corn [2]; SDI chemigated): 1.125 Bu./inch
- Yield (corn [2]; foliar applied (V6 & R1)): 161.8 Bu./acre
- Azoxystrobin % CWUE Increase over Untr./0% irr. (corn [2]; foliar applied): +108% incr over
- Azoxystrobin % Yield Increase over Untr./0% irr. (corn [2]; foliar applied): +6.7% incr over
- CWUE (crop water use efficiency) (corn [2]; foliar applied): 0.965 Bu./inch
- Seed mass, statistical statement (soybean; all Quadris treatments): Statistically significant difference in seed mass
- % IWUE Increase over Untreated (soybean; one application): +2% over
- % Seed Mass Increase over Untreated (soybean; one application): +3% over
- % Yield Increase over Untreated (soybean; one application): +2% over
- IWUE (water productivity) (soybean; one application): 129 lbs/acre-inch
- Seed Mass (soybean; one application): 148a mg
- Yield (soybean; one application): 48.4 Bu./acre
- Water productivity, in words (soybean; soybean, sprinkler irrigation): increase in water productivity
- % IWUE Increase over Untreated (soybean; two applications): +6% over
- % Seed Mass Increase over Untreated (soybean; two applications): +6% over
- % Yield Increase over Untreated (soybean; two applications): +5% over
- IWUE (water productivity) (soybean; two applications): 133 lbs/acre-inch
- Seed Mass (soybean; two applications): 151a mg
- Yield (soybean; two applications): 49.7 Bu./acre
